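The compound was tested at five concentrations on cells cultured in 96-well plates, with a 48-hour exposure period. GI50 marks 50% less growth.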 Activity calls are given as the source filed them. Cut-off read from the data, not from the text of the source: active = GI50 up to about 1.1 µM and inactive = higher. A value given as a limit tells only on which side of the number the result lay.

This note sets out measurements from ChEMBL document CHEMBL1201862, “PubChem BioAssay data set” (2004).

Among the test systems are A498; ACHN; HCC 2998; HL-60; HOP-62; HT-29; LOX IMVI; M14; MDA-N; Malme-3M; NCI-H226; PC-3; SF-268; SF-539; SK-MEL-28; SK-MEL-5; SK-OV-3; SNB-19; UACC-257; UACC-62.
Holding throughout (experiment): growth of human tumour cells (NCI), 48 h

As to `CNC(=O)N(C)/N=N/CCCl`, the GI50 in the experiment on A498, with ACHN, in the experiment with HCC 2998, in the experiment on HL-60, in the experiment with HOP-62 and with HT-29 was > 100 µM (inactive) each time. In addition, the GI50 in the experiment on LOX IMVI, in the experiment on M14, with MDA-N, with Malme-3M, in the experiment on NCI-H226 and with PC-3 was > 100 µM (inactive) in each case. For the same molecule, the GI50 in the experiment with SF-268, with SF-539, with SK-MEL-28, with SK-MEL-5, in the experiment with SK-OV-3 and in the experiment on SNB-19 was > 100 µM (inactive) each time. Also, the GI50 in the experiment with UACC-257 and with UACC-62 was > 100 µM (inactive) each time.

On to `C=C1C(=O)O[C@@H]2C[C@@]3(C)CCCC(=C)[C@@H]3C[C@H]12.C=C1C(=O)O[C@@H]2C[C@@]3(C)CCC[C@H](C)C3=C[C@H]12`, for which the GI50 in the experiment on A498 was 1.71 µM (inactive); in the experiment with ACHN it was 2.55 µM (inactive); in the experiment on HCC 2998 it was 5.85 µM (inactive); in the experiment with HL-60, 1.99 µM (inactive); in the experiment with HOP-62 it was 2.3 µM (inactive); in the experiment on HT-29 it was 2.12 µM (inactive). Further, the GI50 in the experiment on LOX IMVI was 2.9 µM (inactive); in the experiment with M14 it was 1.42 µM (inactive); with MDA-N, 2.04 µM (inactive); with Malme-3M, 0.731 µM (active); in the experiment on NCI-H226 it was 5.3 µM (inactive); in the experiment on PC-3 it was 3.2 µM (inactive). The GI50 in the experiment with SF-268 is 2.55 µM (inactive); with SF-539, 2.13 µM (inactive); with SK-MEL-28, 1.78 µM (inactive); in the experiment with SK-MEL-5, 1.6 µM (inactive); with SK-OV-3, 9.79 µM (inactive); with SNB-19, 9.33 µM (inactive). The values for the GI50 in the experiment on UACC-257 and in the experiment with UACC-62 were 1.65 µM (inactive) and 2.39 µM (inactive), respectively.

Turning to `C/C1=C\[C@H](C)C[C@H](C)OC(=O)C[C@H](c2ccc(O)cc2)NC(=O)[C@@H](Cc2c(Br)[nH]c3ccccc23)N(C)C(=O)[C@H](C)NC(=O)[C@@H](C)C1` [JASPAMIDE], the GI50 was 0.0224 µM (active) in the experiment on A498; 0.199 µM (active) in the experiment with ACHN; 0.0499 µM (active) with HCC 2998; 0.132 µM (active) in the experiment on HL-60; 0.329 µM (active) in the experiment on HOP-62; 0.173 µM (active) in the experiment on HT-29. The GI50 was 0.122 µM (active) with LOX IMVI; 0.211 µM (active) in the experiment with M14; 0.0834 µM (active) with MDA-N; 0.148 µM (active) in the experiment with Malme-3M; 0.245 µM (active) in the experiment with NCI-H226; 0.0667 µM (active) in the experiment on PC-3. Besides, the GI50 in the experiment on SF-268 is 0.139 µM (active); in the experiment with SF-539, 0.0249 µM (active); with SK-MEL-28, 0.124 µM (active); in the experiment with SK-MEL-5, 0.158 µM (active); with SK-OV-3, 0.185 µM (active); in the experiment with SNB-19 it was 0.213 µM (active). Besides, the values for the GI50 with UACC-257 and in the experiment on UACC-62 were 0.11 µM (active) and 0.219 µM (active), respectively.

With `Nc1nc(OCC2CCCCC2)c2nc[nH]c2n1`, the GI50 was 13.7 µM (inactive) with A498; 1.3 µM (inactive) in the experiment on ACHN; 17.5 µM (inactive) in the experiment on HCC 2998; 19.1 µM (inactive) with HL-60; 13.4 µM (inactive) with HOP-62; 12.3 µM (inactive) in the experiment with HT-29. Besides, the GI50 was 8.75 µM (inactive) in the experiment with LOX IMVI; 8.73 µM (inactive) in the experiment on M14; 13.1 µM (inactive) in the experiment with MDA-N; 5.73 µM (inactive) in the experiment on Malme-3M; 9.59 µM (inactive) in the experiment with NCI-H226; 10.8 µM (inactive) in the experiment with PC-3. The GI50 in the experiment on SF-268 was 11.2 µM (inactive); in the experiment on SF-539 it was 11.5 µM (inactive); with SK-MEL-28, 26.2 µM (inactive); with SK-MEL-5 it was 15.2 µM (inactive); in the experiment on SK-OV-3, 14.9 µM (inactive); with SNB-19 it was 25.2 µM (inactive). In addition, the GI50 in the experiment with UACC-257 was 17.3 µM (inactive); with UACC-62, 12.6 µM (inactive).

As for `Cc1nc2c(O)cc3c4c(=O)n(C)c(=O)n(C)c4n(Cc4ccccc4)c3c2nc1C`, the GI50 with A498 was 33 µM (inactive); in the experiment on ACHN it was 17.9 µM (inactive); with HCC 2998, 22.7 µM (inactive); in the experiment with HL-60, 24.2 µM (inactive); with HOP-62 it was 17.6 µM (inactive); in the experiment with HT-29, 15.8 µM (inactive). Also, the GI50 with LOX IMVI is 18.9 µM (inactive); with M14, 17.6 µM (inactive); in the experiment on MDA-N, 18.4 µM (inactive); in the experiment on Malme-3M, 18.7 µM (inactive); in the experiment with NCI-H226 it was 21.6 µM (inactive); in the experiment on PC-3, 16.7 µM (inactive). Besides, the GI50 in the experiment with SF-268 was 17.6 µM (inactive); in the experiment with SF-539, 16 µM (inactive); with SK-MEL-28 it was 14.3 µM (inactive); with SK-MEL-5 it was 18.1 µM (inactive); in the experiment with SK-OV-3, 17.1 µM (inactive); in the experiment on SNB-19 it was 18.6 µM (inactive). In addition, the GI50 is 18.4 µM (inactive) in the experiment with UACC-257 and 18.2 µM (inactive) in the experiment on UACC-62.

For the molecule `O=[N+]([O-])/C(C(Cl)=C(Cl)Cl)=C(/Cl)Sc1ccccc1`, the GI50 in the experiment with A498 was 2 µM (inactive); in the experiment with ACHN, 2.08 µM (inactive); in the experiment on HCC 2998, 2.7 µM (inactive); with HL-60, 0.139 µM (active); in the experiment on HOP-62 it was 3.54 µM (inactive); in the experiment on HT-29, 2.24 µM (inactive). The GI50 in the experiment with LOX IMVI was 1.87 µM (inactive); in the experiment with M14 it was 1.82 µM (inactive); in the experiment with MDA-N, 1.59 µM (inactive); in the experiment with Malme-3M, 1.6 µM (inactive); in the experiment with NCI-H226, 7.76 µM (inactive); in the experiment with PC-3 it was 2.26 µM (inactive). Further, the GI50 in the experiment on SF-268 was 2.29 µM (inactive); in the experiment with SF-539, 1.99 µM (inactive); in the experiment on SK-MEL-28, 1.72 µM (inactive); with SK-MEL-5 it was 2.12 µM (inactive); in the experiment on SK-OV-3 it was 20.1 µM (inactive); in the experiment on SNB-19, 17.7 µM (inactive). Besides, the GI50 is 1.25 µM (inactive) in the experiment on UACC-257 and 1.8 µM (inactive) in the experiment on UACC-62.

In the case of `O=[N+]([O-])c1cc2ccc(N(CCO)CCO)nc2nc1N(CCO)CCO`, the GI50 in the experiment with A498, in the experiment with ACHN, in the experiment on HCC 2998, with HL-60, in the experiment with HOP-62 and in the experiment on HT-29 was > 100 µM (inactive) throughout. The GI50 in the experiment on LOX IMVI, with M14, with MDA-N, in the experiment on Malme-3M, with NCI-H226 and in the experiment with PC-3 was > 100 µM (inactive) throughout. Also, the GI50 in the experiment on SF-268, in the experiment on SF-539, with SK-MEL-28, in the experiment with SK-MEL-5, with SK-OV-3 and in the experiment with SNB-19 was > 100 µM (inactive) each time. The GI50 with UACC-257 and with UACC-62 was > 100 µM (inactive) each time.
